Test results as given in article PMC9495854, “Novel Phenothiazine/Donepezil-like Hybrids Endowed with Antioxidant Activity for a Multi-Target Approach to the Therapy of Alzheimer’s Disease” (Antioxidants, 2022).

Tests used:
[1] = target: T1, Aβ1-40 aggregation (Homo sapiens, UniProt P05067); experiment: Inhibition of Aβ40 aggregation, ThT fluorescence; format: biochemical; conditions: inhibitor 10 µM, Aβ40 30 µM, PBS pH 7.4, 2% HFIP, 2 h 25 °C; mean ± SEM
T1 construct: purchased EZBiolab
Protocol: ThT fluorescence in the presence of Aβ was measured for each compound according a previously described procedure. The samples were co-incubated and mixed in 96-well black, non-binding microplates (Greiner Bio-One GmbH, Frickenhausen, Germany), incubating Aβ40 (EZBiolab, Carmel, IN, USA) at a final concentration of 30 µM with each inhibitors at a final concentration of 10 µM in PBS (pH 7.4) containing 2% 1,1,1,3,3,3-hexafluoro-2-propanol (HFIP). After 2 h at 25 °C, a 25 µM ThT solution was added and fluorescence was determined using the multi-plate reader Tecan Infinite M1000 Pro (Tecan, Cernusco S.N., Italy). The results are reported as mean of three independent experiments ± SEM [13].

[2] = DPPH radical scavenging assay; conditions: DPPH 100 µM in methanol, 30 min
Protocol: A previously reported method (Blois) with some modifications (Mishra, Ojha, & Chaudhury, 2012) was used to carry out the DPPH assay in 96-well microtiter plates. Each tested compound was dissolved in methanol, after which a freshly prepared solution of DPPH in methanol (100 µM final concentration) was added. Following vigorous stirring, each mixture was left in the dark for 30 min at room temperature, after which absorbance values for each well were read at 520 nm using a spectrophotometric plate reader (VICTOR^3 V multilabel plate reader, PerkinElmer). Antioxidant activity was determined as RSA% (radical scavenging activity). The value was calculated using following equation: RSA% = 100 × [(Ao − Ai)/Ao], where Ao and Ai represent DPPH absorbance in absence or in presence of antioxidant, respectively. Antiradical curves for calculating the EC50 values were obtained by testing each compound at several concentrations. Values of all parameters are expressed as mean ± SEM of at least three independent measurements in triplicate.

[3] = target: T2, FAAH Human recombinant (Homo sapiens, UniProt O00519); experiment: FAAH inhibition, fluorometric assay; format: biochemical; conditions: mean ± SEM; read-out: hFAAH (IC50)
T2 construct: purchased Cayman Chemical
T2 sequence (O00519 1-579): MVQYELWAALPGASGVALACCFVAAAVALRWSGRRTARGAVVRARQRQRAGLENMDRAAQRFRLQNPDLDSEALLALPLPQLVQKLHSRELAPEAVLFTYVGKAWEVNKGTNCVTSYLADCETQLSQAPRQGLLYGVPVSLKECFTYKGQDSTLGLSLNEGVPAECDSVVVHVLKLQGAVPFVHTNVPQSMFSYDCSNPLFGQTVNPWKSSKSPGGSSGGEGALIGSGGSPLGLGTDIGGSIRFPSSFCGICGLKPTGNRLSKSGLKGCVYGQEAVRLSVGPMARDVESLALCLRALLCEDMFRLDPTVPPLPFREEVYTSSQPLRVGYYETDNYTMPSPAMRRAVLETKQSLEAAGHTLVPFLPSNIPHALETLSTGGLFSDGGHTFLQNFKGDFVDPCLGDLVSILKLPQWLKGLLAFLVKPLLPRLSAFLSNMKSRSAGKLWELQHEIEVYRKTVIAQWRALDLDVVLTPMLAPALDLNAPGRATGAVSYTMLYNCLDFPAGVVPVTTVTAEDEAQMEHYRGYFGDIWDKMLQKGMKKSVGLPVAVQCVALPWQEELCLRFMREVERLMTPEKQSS
Protocol: The fatty acid amide hydrolase inhibition was measured for the final compounds using 96-well black flat-bottom microtiter NBS plates (COSTAR flat black). The total volume was 150 µL: the single hybrid was pre-incubated at different concentrations with the enzyme (FAAH Human recombinant, Cayman Chemical, Ann Arbor, MI, USA) in the specific fluorometric assay buffer (tris-HCl 125 mM, Na2EDTA · 2H2O 1 mM, pH = 9.0) for ten minutes at RT, using an orbital shaker. A 50 μL solution of the substrate (7-amino-4-methyl-2H-1-benzopyran-2-one-5Z,8Z,11Z,14Z-eicosatetraen-amide, at a final concentration of 5 µM) was then added. The plates were then incubated for 1 h at 37 °C in a Tecan Infinite M1000 Pro (Tecan, Cernusco S.N., Italy), reading fluorescence values from each well every 30s (λex = 340 nm, λem = 450 nm). The inhibitor activity was expressed as relative fluorescence units (RFU), using the values obtained from control wells lacking the inhibitor and blank wells lacking both inhibitor and enzyme to calculate percent inhibition values for each well. IC50 values are expressed as mean ± SEM of at least two independent measurements performed in triplicate.

[4] = tested on: SH-SY5Y cells; experiment: DCFH-DA cell-based antioxidant assay (H2O2-induced oxidation), SH-SY5Y; conditions: Homo sapiens, SHSY-5Y, 1 h compound, 100 μM H2O2, read-out: DCFDH-DA IC50 ± SEM SHSY-5Y
Protocol: HepG2 cells were cultured in Eagle’s Minimum Essential Medium (MEM, Euroclone S.p.A., Pero, MI, Italy), supplemented with 10% Fetal Bovine Serum (FBS, Euroclone S.p.A., Pero, MI, Italy), 1% L-glutamine (Euroclone S.p.A., Pero, MI, Italy), 100 U/mL penicillin/streptomycin (Euroclone S.p.A., Pero, MI, Italy), 1% Non-Essential Amino Acids (NEAA, Euroclone S.p.A., Pero, MI, Italy). SH-SY5Y cells were grown in a 1:1 mixture of Dulbecco’s modified Eagle’s medium (DMEM)—high glucose (Euroclone S.p.A., Pero, MI, Italy) and Ham’s F12 Medium (Euroclone S.p.A., Pero, MI, Italy) supplemented with 10% FBS, 1% L-glutamine and 100 U/mL penicillin/streptomycin. For cell assays, cells were trypsinized using Trypsin-EDTA 1X in PBS (Euroclone S.p.A., Pero, MI, Italy).
According to a slightly modified procedure already reported in the literature, the generation of ROS was determined using an oxidation-sensitive fluorescent probe, 2′,7′-dichlorodihydrofluorescein diacetate (DCFH-DA, D6665; Sigma-Aldrich, St. Louis, MO, USA). Briefly, viable cells were seeded in a black 96-well cell culture plate (Costar, Sigma-Aldrich, St. Louis, MO, USA) and after 24 h were incubated with different concentrations (0.1–100 µM) of each compound for 1 h at 37 °C in 5% CO2. […] After washing using PBS, 100 μM H2O2 in medium without serum was added to each well and the cells were incubated for an additional 30 min. The formation of fluorescent dichlorofluorescein (DCF) due to oxidation of DCFH in the presence of ROS, was read at 530 nm using a microplate reader Tecan Infinite M1000 Pro (Tecan, Cernusco S.N., Italy) and DMSO medium was used for control cells. The results are expressed as mean ± SEM of at least three independent measurements in triplicate.

T1 sequence (P05067 672-711 limits assumed): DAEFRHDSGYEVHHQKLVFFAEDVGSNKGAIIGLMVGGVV

COc1cc2c(cc1OC)C(=O)C(CC1CCN(Cc3ccccc3)CC1)C2 (centres unmarked) [Donepezil]
Aβ1-40 Aggregation (I% at 10 µM) [1]: 14% ± 7

O=C(O)c1cc(O)c(O)c(O)c1 [Gallic acid, reference compound]
EC50 (μmol/μmol of DPPH ± SEM) [2]: 0.059 ± 0.003 μmol/μmol of DPPH
EC50 (μmol/μmol of DPPH ± SEM) ([2]; listed as gallic acid): 0.059 μmol/μmol of DPPH

O=C(Oc1ccc([N+](=O)[O-])cc1)N1CCN(Cc2cccc(Oc3ccccc3)c2)CC1 [JZL195, reference compound]
IC50 [3]: 0.019 ± 0.003 µM

O=c1c(O)c(-c2ccc(O)c(O)c2)oc2cc(O)cc(O)c12 [Quercetin, reference compound]
IC50 [4]: 5.61 ± 0.4 µM
